Measured values: patent publication US20120108855A1, “INCREASED EXPRESSION OF TRANSHYDROGENASE GENES AND THEIR USE IN ETHANOL PRODUCTION” (UNIVERSITY OF FLORIDA RESEARCH FOUNDATION, INC., priority 2009, published 2012)
Where two headings read alike, the source gives them in different places.

What was measured:
E. coli LY180 [1] = type: cell-based, Escherichia coli; details: amino acid 0.5 mM, 1 g liter^-1 furfural, AM1 medium, 48 hours
E. coli LY180 [2] = type: cell-based, Escherichia coli; details: for relief of furfural inhibition of growth by alternative sulfur source / furfural resistance (growth of LY180) with individual amino acid: AM1 medium; for furfural resistance (growth of LY180) with individual amino acid: amino acid 0.1 mM, 50 g liter^-1 xylose, 37 C, 48 hours
Experimental: Furfural tolerance was examined by measuring growth in standing tubes with 4 mL total volume of AM1 and 50 g liter^−1 filter-sterilized xylose as described previously (48). Tubes were incubated at 37° C. and measured after 24 hours and 48 hours. Values reported are an average of 4 measurements.
All 20 amino acids were individually tested for their ability to improve the growth of LY180 in AM1 mineral salts medium (FIG. 9A). A concentration of 0.1 mM was selected roughly based on the cellular content of individual amino acids (50).
During growth in AM1 medium containing 1 g liter^−1 furfural, the effects of alternative sulfur sources (L-cysteine, D-cysteine, taurine, and sodium thiosulfate) that enter metabolism at different levels of reduction (FIG. 9D) was compared. Note that 4 NADPH molecules and two reductase enzymes (CysH and CysIJ) are required to fully reduce sulfate prior to assimilation into cysteine. […] D-cysteine cannot be incorporated directly and is first catabolized to H2S (49). Thiosulfate also serves as a source of reduced sulfur for incorporation by CysM (47). Taurine is catabolized to sulfite in the cytoplasm and must be reduced by sulfite reductase (CysIJ and 3 NADPH molecules) prior to assimilation into cysteine (54).

LY180 [3] = test: 5-HMF tolerance in tube cultures, LY180, with cysteine supplements; type: cell-based, Escherichia coli
Experimental: FIG. 17. Effect of L-cysteine on 5-HMF tolerance of LY180. Experiments were performed in tube cultures with AM1 medium containing 50 g l^−1 xylose and 5-HMF (24 h incubation). Cultures were supplemented with filter-sterilized L-cysteine as indicated. All data are plotted as a mean with standard deviation (n=4). A. 1.0 g l^−1 5-HMF; B. 2.0 g 1^−1 5-HMF.
Tolerance to HMF was tested using 13×100 mm closed tubes containing 4 ml AM1 and 5-HMF as indicated. When appropriate, antibiotics were included for plasmid maintenance. Tubes were inoculated to an initial density of 0.05 OD550nm. Growth was measured after incubation (60 rpm) for 48 h using a Spectronic 20D+ spectrophotometer (Thermo, Waltham, Mass.). To examine the effects of pntAB on furan tolerance, a multiwall plate containing 400 μl of AM1 (and 5-HMF or furfural) per well was inoculated as above. OD(420-580nm bandwidth) was measured for 72 h using a Bioscreen C growth analyzer (Oy Growth Curves, Helsinki, Finland).

DkgA = DkgA (Escherichia coli, UniProt Q46857); details: read-out: apparent Km for NADPH; cited from earlier work
YqhD = YqhD (Escherichia coli, UniProt Q46856); details: cited from earlier work
[4] = target: sulfite reductase (CysIJ) (Escherichia coli, UniProt P38038); details: read-out: Km for NADPH; cited from earlier work
LY180 [5] = test: pH-controlled xylose fermentation with 5-HMF, LY180; type: cell-based, Escherichia coli; details: 1.0 g l^-1 5-HMF, 100 g l^-1 xylose
Experimental: (§1) Strains and plasmids used in this study have been previously described (70 and 23). These include LY180 (an ethanologenic derivative of E. coli), EMFR9 (furfural-tolerant derivative of LY180), LY180ΔyqhD, LY180ΔdkgA, LY180ΔyqhD ΔdkgA, pLOI4301 containing yqhD. Plasmids pLOI4303 containing dkgA (48), and pLOI4316 containing pntAB (70) were also used. Cultures were grown at 37° C. in AM1 minimal media (23) containing 20 g 1^−1 xylose (solid medium), 50 g l^−1 xylose (Bioscreen C growth analyzer and tube cultures), or 100 g 1^−1 (pH-controlled fermentations).
(§2) For fermentation experiments, seed cultures of LY180 and EMFR9 were grown overnight in small fermentors (37° C., 200 rpm) containing 350 ml of AM1 medium. Broth was maintained at pH 6.5 by the automatic addition of 2 N KOH. Upon reaching mid-log phase, experimental fermenters were inoculated to an initial cell density of 0.1 OD550nm. (33 mg dry cell weight 1^−1). Cell mass (OD550nm) and furan levels were monitored at 12-h intervals as described previously (20).

EMFR9 = test: pH-controlled xylose fermentation with 5-HMF, EMFR9; type: cell-based, Escherichia coli
Experimental: as §1, §2

LY180 strains = test: Growth of LY180 strains carrying plasmids in the presence of furfural; type: cell-based, Escherichia coli; details: 0.10% furfural, after 48 hours
Experimental: LY 180 strains were grown on LB glucose ampicillin plates overnight and each were used to inoculate a tube of AM1 xylose to 3-4 OD. This culture was immediately used to inoculate […] capped tubes containing 4 mL AM1 5% xylose, ampicillin, and an indicated concentration of furfural to 0.05 initial OD. Cultures were grown in a water bath at 37 C and OD 500 nm readings were taken after 24 and 48 hours.
PntAB is a proton translocating transhydrogenase that is not known to function during fermentative growth but is potentially capable of increasing the pool of NADPH (52). In examples 2 and 3, the E. coli […] transhydrogenase PntAB was cloned into pTrc99a and confirmed by sequencing. PntAB with native ribosomal binding site and rho dependent terminator was polymerase chain reaction (PCR) amplified from E. coli strain LY180 genomic DNA using primers with HindIII digestible ends. The PCR product and pTrc099a were HindIII digested, purified using a Qiagen Qiaprep Spin Miniprep Kit, and ligated together using T4 Quick DNA ligase. After transforming the resulting vector into TOP10F′, the plasmid was extracted and used to transform LY180. Orientation was verified by PCR analysis. The empty vector served as a control. Inducer was added prior to inoculation. The growth of LY180 strains carrying plasmids having increasing expression of pntA and pntB genes was compared (FIG. 2A-2B). […]

[6] = Stability of furfural in mineral salts medium; type: physicochemical; details: 48 incubation at 37 C
Experimental: Protective concentrations of cysteine (0.05 mM) were 200-fold lower than that of 1 g liter^−1 furfural (10 mM).

E. coli LY180 [7] = test: Microarray analysis of LY180 after furfural addition; type: cell-based, Escherichia coli
Experimental: Cultures were grown in small fermenters to a density of 670 mg dcw liter^−1. An initial sample was removed that served as a control. Furfural was immediately added from a 50 g liter^−1 aqueous stock (0.5 g liter^−1 final concentration) and incubation continued for 15 minutes prior to a second sampling. Samples were rapidly cooled in an ethanol-dry ice bath, harvested by centrifugation at 4° C., resuspended in Qiagen RNA Later and stored at −80° C. RNA was extracted using a Qiagen RNeasy Mini Kit, treated with DNase I and purified by phenol/chloroform extraction and ethanol precipitation. RNA was sent to NimbleGen (Madison, Wis.) for microarray comparisons using probes designed for E. coli K12. Each sample consisted of pooled material from four fermenters. The complete experiment was performed twice and the data was averaged (8 fermentors). Data was analyzed using ArrayStar (DNA Star, Madison, Wis.) and SimPheny software (Genomatica Inc., San Diego, Calif.). Expression ratios are presented as the average of the two pooled datasets.
Message levels were compared in actively growing cells before and 15 min after the addition of 0.5 g liter^−1 furfural. A water control was also included for comparison. […]

Sequence of YqhD (Q46856 whole entry): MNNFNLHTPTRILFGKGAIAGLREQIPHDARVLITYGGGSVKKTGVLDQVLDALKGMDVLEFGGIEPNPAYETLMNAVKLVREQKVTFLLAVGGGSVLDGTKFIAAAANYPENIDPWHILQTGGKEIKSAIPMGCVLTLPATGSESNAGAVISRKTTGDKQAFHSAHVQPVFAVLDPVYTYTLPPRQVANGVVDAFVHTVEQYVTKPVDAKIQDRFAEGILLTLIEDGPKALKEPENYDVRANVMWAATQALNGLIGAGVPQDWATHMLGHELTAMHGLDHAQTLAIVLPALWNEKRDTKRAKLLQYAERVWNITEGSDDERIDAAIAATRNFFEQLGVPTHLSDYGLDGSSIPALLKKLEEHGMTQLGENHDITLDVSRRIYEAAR
Sequence of sulfite reductase (CysIJ) (P38038 2-599): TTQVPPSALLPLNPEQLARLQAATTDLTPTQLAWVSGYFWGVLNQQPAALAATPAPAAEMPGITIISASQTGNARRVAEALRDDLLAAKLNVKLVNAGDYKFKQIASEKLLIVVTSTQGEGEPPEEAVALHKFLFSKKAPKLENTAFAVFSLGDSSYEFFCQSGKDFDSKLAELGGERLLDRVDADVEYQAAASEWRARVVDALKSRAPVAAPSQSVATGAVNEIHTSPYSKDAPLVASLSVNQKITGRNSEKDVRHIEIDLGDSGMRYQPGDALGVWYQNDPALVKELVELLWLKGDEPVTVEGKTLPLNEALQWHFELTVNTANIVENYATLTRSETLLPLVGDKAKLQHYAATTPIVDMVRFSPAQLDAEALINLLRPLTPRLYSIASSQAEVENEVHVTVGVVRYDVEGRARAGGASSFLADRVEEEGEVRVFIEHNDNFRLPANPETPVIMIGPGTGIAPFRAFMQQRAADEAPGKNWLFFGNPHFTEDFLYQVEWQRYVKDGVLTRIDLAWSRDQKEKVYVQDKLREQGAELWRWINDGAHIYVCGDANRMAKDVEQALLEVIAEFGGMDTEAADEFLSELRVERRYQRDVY
Sequence of sulfite reductase (CysIJ) (P17846 2-570, further chain): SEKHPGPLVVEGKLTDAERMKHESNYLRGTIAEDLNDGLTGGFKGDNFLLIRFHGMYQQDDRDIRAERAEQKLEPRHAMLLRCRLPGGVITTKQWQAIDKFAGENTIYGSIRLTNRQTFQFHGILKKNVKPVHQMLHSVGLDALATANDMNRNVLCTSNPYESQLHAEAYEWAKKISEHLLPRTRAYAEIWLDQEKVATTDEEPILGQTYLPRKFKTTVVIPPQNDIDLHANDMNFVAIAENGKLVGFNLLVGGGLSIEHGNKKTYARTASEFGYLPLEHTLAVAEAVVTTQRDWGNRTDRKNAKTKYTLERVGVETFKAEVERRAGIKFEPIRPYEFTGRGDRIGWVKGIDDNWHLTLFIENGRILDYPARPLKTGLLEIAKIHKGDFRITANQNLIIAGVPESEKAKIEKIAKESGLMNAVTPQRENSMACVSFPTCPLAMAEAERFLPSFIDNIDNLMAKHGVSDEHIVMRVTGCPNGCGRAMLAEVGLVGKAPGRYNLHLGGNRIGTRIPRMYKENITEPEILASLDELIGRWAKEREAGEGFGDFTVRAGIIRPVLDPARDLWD
Sequence of DkgA (Q46857 whole entry): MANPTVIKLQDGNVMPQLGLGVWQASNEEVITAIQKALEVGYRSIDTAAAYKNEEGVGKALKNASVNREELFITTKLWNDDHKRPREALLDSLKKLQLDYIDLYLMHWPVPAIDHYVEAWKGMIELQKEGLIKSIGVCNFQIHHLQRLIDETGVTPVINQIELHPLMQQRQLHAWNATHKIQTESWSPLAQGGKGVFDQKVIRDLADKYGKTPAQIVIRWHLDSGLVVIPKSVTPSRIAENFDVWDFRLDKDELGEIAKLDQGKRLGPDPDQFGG

## N[C@@H](CS)C(=O)O [cysteine, L-cysteine]
E. coli LY180 [1]
  furfural resistance (growth of LY180) with individual amino acid: most effective
E. coli LY180 [2]; 1 g liter^-1 furfural (10 mM)
  protective concentration against furfural: 0.05 mM
E. coli LY180 [2]; 1 g liter^-1 furfural
  relief of furfural inhibition of growth by alternative sulfur source: effective
  furfural resistance (growth of LY180) with individual amino acid: improved furfural resistance
E. coli LY180 [2]; cysteine 0.01 mM
  improvement in furfural resistance: No measurable improvement
E. coli LY180 [2]; cysteine 0.05 mM, 1 g liter^-1 furfural
  density to which LY180 grew: 0.8 g/L
LY180 [3]; 100 uM cysteine, 1 g l^-1 5-HMF
  growth of LY180 with cysteine supplement: completely restored
LY180 [3]; 100 uM or 1000 uM cysteine, 2.5 g l^-1 5-HMF
  growth of LY180 with cysteine supplement: not restored
LY180 [3]; LY180
  effect of cysteine supplements on the MIC for 5-HMF: did not increase

## N[C@H](CS)C(=O)O [D-cysteine]
E. coli LY180 [2]; 1 g liter^-1 furfural
  relief of furfural inhibition of growth by alternative sulfur source: effective

## NC(=O)C1=CN([C@@H]2O[C@H](COP(=O)(O)OP(=O)(O)OC[C@H]3O[C@@H](n4cnc5c(N)ncnc54)[C@H](OP(=O)(O)O)[C@@H]3O)[C@@H](O)[C@H]2O)C=CC1 [NADPH]
DkgA
  Km: 23 µM
YqhD; read-out: Km for NADPH
  Km: 8 µM
YqhD; read-out: apparent Km for NADPH
  Km: 8 µM
[4]
  Km: 80 µM

## N=C(N)NCCC[C@H](N)C(=O)O [arginine]
E. coli LY180 [2]; 1 g liter^-1 furfural
  furfural resistance (growth of LY180) with individual amino acid: improved furfural resistance

## OCC(O)CO [glycerol]
E. coli LY180 [2]; glycerol 1.0 to 20 g liter^-1, data not included
  effect on furfural tolerance: no effect

## NCCS(=O)(=O)O [taurine]
E. coli LY180 [2]; 1 g liter^-1 furfural
  relief of furfural inhibition of growth by alternative sulfur source: not effective

## O=Cc1ccc(CO)o1 [5-HMF, 5-hydroxymethyl furfural]
LY180 [5]
  growth of LY180: completely inhibited
EMFR9; 1.0 g l^-1 5-HMF, fermentation
  effect on cell yield or ethanol yield of EMFR9: no detrimental effect
EMFR9; 2.5 g 5-HMF l^-1, fermentation
  ethanol production and growth of EMFR9: slowed
  time to completion of ethanol production and growth of EMFR9: 96 h
LY180 [3]; 1 g l^-1 5-HMF, tube cultures, 24 h
  growth of LY180: partially inhibited

## O=Cc1ccco1 [furfural]
LY180 strains
  growth of LY180 strains other than pTrc99a-pntAB forward: substantially stopped growing
[6]
  furfural in mineral salts medium, by characteristic spectrum: remained unchanged
E. coli LY180 [7]; 0.5 g liter^-1 furfural, 15 min
  genes with expression altered two-fold or greater: approximately 400 genes
E. coli LY180 [7]; addition of furfural, parent LY180
  up-regulation of YqhD and DkgA (mRNA): over 5 fold

## N[C@@H](CO)C(=O)O [serine]
E. coli LY180 [2]; 1 g liter^-1 furfural
  furfural resistance (growth of LY180) with individual amino acid: improved furfural resistance

## O=S(O)(O)=S [thiosulfate, sodium thiosulfate]
E. coli LY180 [2]; 1 g liter^-1 furfural
  relief of furfural inhibition of growth by alternative sulfur source: effective

## CSCC[C@H](N)C(=O)O [methionine]
E. coli LY180 [2]; 1 g liter^-1 furfural
  furfural resistance (growth of LY180) with individual amino acid: improved furfural resistance

## N[C@@H](Cc1c[nH]cn1)C(=O)O [histidine]
E. coli LY180 [2]; 1 g liter^-1 furfural
  furfural resistance (growth of LY180) with individual amino acid: improved furfural resistance
